Series [1] concerns HepG2 (hepatocellular carcinoma). Description: MTT antiproliferative assay, HepG2. To be noted: Homo sapiens, HepG2, read-out: IC50 (µM) HepG2. (In general: Tetrazolium dyes change colour on reduction, which living cells bring about.)
Source text: (§1) The cell lines mentioned above were used to determine the inhibitory effects of the compounds on cell growth using the MTT assay.
The subject of series [2] is HCT116 (colorectal carcinoma). Description: MTT antiproliferative assay, HCT116. Particulars: Homo sapiens, HCT-116, read-out: IC50 (µM) HCT116.
Source text: as §1
Series [3] concerns normal fibroblast cell line, WI-38. The series is described as follows: MTT cytotoxicity in normal fibroblasts WI-38. To be noted: Homo sapiens, WI-38, read-out: IC50 (µM) WI-38.
Procedure: The MTT assay was performed to evaluate the in vitro antitumor activity of the synthesized 4-anilinoquinazolines according to a previously reported method [59, 60, 61, 62, 63].
In series [4] the test system is HeLa (cervical epithelioid carcinoma). The series is described as follows: MTT antiproliferative assay, HeLa. To be noted: Homo sapiens, read-out: IC50 (µM) HeLa.
Source text: as §1
Series [5] deals with MCF7 (mammary gland breast cancer). Description: MTT antiproliferative assay, MCF7. To be noted: Homo sapiens, MCF7, read-out: IC50 (µM) MCF7.
Source text: as §1
Series [6] has as its target T1, CDK9/CycT1 (Homo sapiens, UniProt P50750). The series is described as follows: In vitro CDK9/cyclin T1 enzyme inhibition assay.
Procedure: (§2) The CDK enzyme assay was performed as previously described [63].
In series [7] the target is T1, CDK9/CycT1. Description: Ligand efficiency and ligand lipophilic efficiency (DataWarrior). To be noted: for LE: LE=−RTlnIC50/N; for LLE: LLE=pIC50−clogP. The method, then: Ligand efficiency is an important parameter that is widely used in the development of drug measures to quantify the molecular properties, particularly the size and lipophilicity of small molecules, required to gain binding affinity to a drug target. The LE values of the synthesized compounds were measured using DataWarrior employing the following equation [48]: LE=−RTlnIC50/N where R is the universal gas constant, T is the absolute temperature in Kelvin, and N represents the number of heavy atoms, that is, non-hydrogen atoms in the drug.
LE is widely used for the selection and optimization of fragments, hits, and leads. […] Compounds with LE values higher than 0.3 are promising lead compounds.
In drug discovery and development, it is challenging to optimize the compound activity while maintaining a constant lipophilicity. As a result, LLE is an effective approach to control molecule lipophilicity to evade any “molecular obesity” through lead optimization. These were obtained via DataWarrior, according to the following equation [50]: LLE=pIC50−clogP
An acceptable lead compound should have an LLE value ≥5. As depicted in Table 6, 5j has acceptable LLE values. However, other compounds have values below the recommended limit.

A further series has as its target CDK8 (Homo sapiens, UniProt P49336). The series is described as follows: In vitro CDK8 enzyme inhibition assay.
For a further series, the target named is CDK7/CycT1 (Homo sapiens, UniProt P50613). The series is described as follows: In vitro CDK7 enzyme inhibition assay.
Where [8] appears, read: pIC 50, from the CDK9 IC50 of Table 6.
Setting [9] is: IC50 (µM) CDK9/CycT1, dose-response curves, repeated in Table 6.

Where only a bound is given, the exact number is not on record here.

Here are results for 16 compounds from paper PMC10254914, “Targeting Transcriptional CDKs 7, 8, and 9 with Anilinopyrimidine Derivatives as Anticancer Agents: Design, Synthesis, Biological Evaluation and In Silico Studies” (Molecules, 2023).

Chain of CDK8 (P49336 whole entry): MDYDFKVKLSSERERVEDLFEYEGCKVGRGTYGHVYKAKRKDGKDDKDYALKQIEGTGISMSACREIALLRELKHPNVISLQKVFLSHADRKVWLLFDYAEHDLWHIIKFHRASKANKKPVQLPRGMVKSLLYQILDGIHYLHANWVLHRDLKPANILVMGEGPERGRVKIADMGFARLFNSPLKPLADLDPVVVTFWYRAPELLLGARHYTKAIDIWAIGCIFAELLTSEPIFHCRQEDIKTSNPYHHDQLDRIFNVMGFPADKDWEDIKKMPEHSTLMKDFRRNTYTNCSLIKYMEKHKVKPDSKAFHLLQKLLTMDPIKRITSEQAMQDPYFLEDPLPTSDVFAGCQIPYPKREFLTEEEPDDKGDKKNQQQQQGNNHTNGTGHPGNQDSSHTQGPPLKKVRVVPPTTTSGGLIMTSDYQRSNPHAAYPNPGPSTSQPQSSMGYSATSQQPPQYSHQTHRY
Chain of CDK8 (P24863 whole entry partner): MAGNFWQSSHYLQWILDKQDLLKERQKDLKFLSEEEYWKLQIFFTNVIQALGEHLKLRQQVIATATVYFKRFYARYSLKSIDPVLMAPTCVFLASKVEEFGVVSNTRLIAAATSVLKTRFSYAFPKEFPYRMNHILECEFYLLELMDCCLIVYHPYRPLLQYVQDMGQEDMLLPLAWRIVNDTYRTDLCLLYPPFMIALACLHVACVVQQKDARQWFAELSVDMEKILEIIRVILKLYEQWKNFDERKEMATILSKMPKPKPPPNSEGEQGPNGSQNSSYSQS
T1 sequence (P50750 whole entry): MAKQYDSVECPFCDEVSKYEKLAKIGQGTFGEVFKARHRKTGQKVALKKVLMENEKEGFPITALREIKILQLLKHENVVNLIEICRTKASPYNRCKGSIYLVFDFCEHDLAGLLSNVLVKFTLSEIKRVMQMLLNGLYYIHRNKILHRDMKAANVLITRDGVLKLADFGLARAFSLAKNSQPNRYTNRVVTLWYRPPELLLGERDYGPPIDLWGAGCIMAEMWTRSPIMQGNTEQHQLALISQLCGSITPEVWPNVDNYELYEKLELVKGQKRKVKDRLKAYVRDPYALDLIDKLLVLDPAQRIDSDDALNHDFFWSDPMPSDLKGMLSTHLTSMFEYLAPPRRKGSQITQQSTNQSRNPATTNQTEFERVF
T1 sequence (O60563 whole entry partner): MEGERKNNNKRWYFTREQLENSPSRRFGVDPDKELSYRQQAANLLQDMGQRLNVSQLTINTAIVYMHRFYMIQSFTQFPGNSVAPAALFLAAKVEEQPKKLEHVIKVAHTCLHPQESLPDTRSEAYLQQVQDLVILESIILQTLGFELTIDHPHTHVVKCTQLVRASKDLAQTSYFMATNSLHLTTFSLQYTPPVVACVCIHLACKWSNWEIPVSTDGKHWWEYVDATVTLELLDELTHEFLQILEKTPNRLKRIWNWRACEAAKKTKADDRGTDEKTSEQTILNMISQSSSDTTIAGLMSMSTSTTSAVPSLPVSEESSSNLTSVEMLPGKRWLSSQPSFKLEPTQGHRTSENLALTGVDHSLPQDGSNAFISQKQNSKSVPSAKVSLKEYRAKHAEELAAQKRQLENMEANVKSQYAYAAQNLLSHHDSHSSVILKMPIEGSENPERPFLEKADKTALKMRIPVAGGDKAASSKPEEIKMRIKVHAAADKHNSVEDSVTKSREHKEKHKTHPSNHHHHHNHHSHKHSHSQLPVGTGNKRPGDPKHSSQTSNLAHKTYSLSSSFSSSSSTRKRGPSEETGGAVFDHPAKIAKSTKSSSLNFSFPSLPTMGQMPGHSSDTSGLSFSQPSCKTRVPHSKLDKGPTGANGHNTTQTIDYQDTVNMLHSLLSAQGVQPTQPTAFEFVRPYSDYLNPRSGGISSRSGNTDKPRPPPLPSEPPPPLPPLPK
Chain of CDK7/CycT1 (P50613 whole entry): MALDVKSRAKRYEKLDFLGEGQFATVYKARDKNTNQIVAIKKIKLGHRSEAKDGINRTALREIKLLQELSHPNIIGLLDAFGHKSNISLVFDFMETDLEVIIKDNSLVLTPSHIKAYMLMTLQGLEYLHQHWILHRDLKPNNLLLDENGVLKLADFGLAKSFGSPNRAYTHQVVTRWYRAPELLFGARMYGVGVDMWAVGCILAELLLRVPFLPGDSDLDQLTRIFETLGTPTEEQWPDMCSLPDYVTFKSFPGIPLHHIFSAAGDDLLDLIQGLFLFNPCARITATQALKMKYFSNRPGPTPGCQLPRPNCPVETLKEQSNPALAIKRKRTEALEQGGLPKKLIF
Chain of CDK7/CycT1 (P51946 whole entry partner): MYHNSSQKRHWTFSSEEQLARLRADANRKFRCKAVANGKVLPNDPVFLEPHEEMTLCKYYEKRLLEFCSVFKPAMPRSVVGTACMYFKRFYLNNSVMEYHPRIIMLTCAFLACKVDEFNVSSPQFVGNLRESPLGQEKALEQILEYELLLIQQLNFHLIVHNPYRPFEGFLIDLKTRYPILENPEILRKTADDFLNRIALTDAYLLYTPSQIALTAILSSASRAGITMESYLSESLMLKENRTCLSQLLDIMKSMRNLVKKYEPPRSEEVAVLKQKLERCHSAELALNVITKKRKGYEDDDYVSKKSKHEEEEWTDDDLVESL
Procedure for CDK7/CycT1: as §2
Procedure for CDK8: as §2

Usually IC50 stands for the concentration at which inhibition is half-maximal. `Nc1nccc(-c2ccc(C(F)(F)F)cc2)n1` [Compound 3d, 4-(4-(trifluoromethyl)phenyl)pyrimidin-2-amine]: the IC50 in [1] is 91.7 ± 4.9 µM; in series [2], more than 100 µM; in [3], more than 100 µM; in series [4], more than 100 µM; in series [5], 87.1 ± 4.6 µM.

In the case of `NS(=O)(=O)c1cccc(Nc2nccc(-c3ccc(F)cc3)n2)c1` [Compound 5f, 3-((4-(4-Fluorophenyl)pyrimidin-2-yl)amino)benzenesulfonamide], the IC50 in [1] is 46.8 ± 2.6 µM; at CDK9/CycT1 [6] (setting [8]), 0.2 µM; in series [2], 65.9 ± 3.7 µM; against CDK8, 1.53 µM; in series [3], 26.9 ± 2 µM; in series [4], 51.4 ± 2.8 µM. In addition, the IC50 is 0.479 µM on CDK7/CycT1 and 57.2 ± 3.2 µM in series [5]. Besides, the LE at CDK9/CycT1 [7] was found to be 0.3694. Further, on CDK9/CycT1 [7], the LLE is recorded as 3.8517.

In the case of `NS(=O)(=O)c1cccc(Nc2nccc(-c3ccccn3)n2)c1` [Compound 5h, 3-((4-(Pyridin-2-yl)pyrimidin-2-yl)amino)benzenesulfonamide], the IC50 is 28 ± 2.1 µM in [1]; 0.191 µM against CDK9/CycT1 [6] (setting [8]); 35.1 ± 2.3 µM in [2]; 6.56 µM against CDK8; more than 100 µM in [3]; 25.4 ± 1.9 µM in series [4]. For the same compound, the IC50 against CDK7/CycT1 was 3.18 µM; in series [5], 14.3 ± 1.2 µM. The compound also returned an LE on CDK9/CycT1 [7] of 0.3868. The compound also yielded an LLE at CDK9/CycT1 [7] of 4.8844.

As to `COc1ccc(-c2ccnc(Nc3cccc(S(N)(=O)=O)c3)n2)cc1` [Compound 5c, 3-((4-(4-Methoxyphenyl)pyrimidin-2-yl)amino)benzenesulfonamide], the IC50 in [1] is 24.4 ± 1.8 µM; against CDK9/CycT1 [6] (setting [8]), 0.246 µM; in [2] it was 38.1 ± 2.4 µM; against CDK8 it was 6.3 µM; in series [3], 56.3 ± 3.4 µM; in [4], 29.8 ± 2.1 µM. The IC50 was determined as 0.966 µM against CDK7/CycT1 and 16.1 ± 1.3 µM in [5]. The same compound yielded an LE on CDK9/CycT1 [7] of 0.3538. On CDK9/CycT1 [7], this compound had an LLE of 4.0076.

For `N#Cc1cnc(N)nc1-c1ccc(Cl)cc1` [Compound 3g, 2-amino-4-(4-chlorophenyl)pyrimidine-5-carbonitrile], the IC50 in series [1] was 44.2 ± 2.5 µM; in series [2], 45 ± 2.6 µM; in series [3], 82.7 ± 4.8 µM; in series [4], 34.7 ± 2.1 µM; in [5], 52.9 ± 2.9 µM.

As to `N#Cc1cnc(Nc2cccc(S(N)(=O)=O)c2)nc1-c1ccc(Cl)cc1` [Compound 5k, 3-((4-(4-Chlorophenyl)-5-cyanopyrimidin-2-yl)amino)benzenesulfonamide], the IC50 was 48.6 ± 2.7 µM in series [1]; 0.613 µM at CDK9/CycT1 [6] (setting [9]); 75.3 ± 4.3 µM in series [2]; 3.66 µM against CDK8; 27.1 ± 2.2 µM in series [3]; 66.2 ± 3.4 µM in [4]. For the same compound, the IC50 against CDK7/CycT1 is 1.73 µM; in series [5] it was 39.5 ± 2.3 µM. The compound also displayed an LE on CDK9/CycT1 [7] of 0.3384. The LLE on CDK9/CycT1 [7] turned out to be 3.4615.

For `NS(=O)(=O)c1cccc(Nc2nccc(-c3ccncc3)n2)c1` [Compound 5i, 3-((4-(Pyridin-4-yl)pyrimidin-2-yl)amino)benzenesulfonamide], the IC50 in series [1] is 52.6 ± 2.9 µM; against CDK9/CycT1 [6] (setting [9]) it was 1.67 µM; against CDK9/CycT1 [6] (setting [8]), 1.67 µM; in series [2], 72.2 ± 4 µM; against CDK8, 4.37 µM; in series [3], 19.7 ± 1.3 µM. Besides, the IC50 in series [4] stood at 63.7 ± 3.2 µM; on CDK7/CycT1 it was 4.33 µM; in series [5], 32.2 ± 2.1 µM. At CDK9/CycT1 [7], this compound registered an LE of 0.3868. Also, the LLE at CDK9/CycT1 [7] was 4.9754.

In general, melting point refers to the temperature, or range, at which the solid turns liquid. Compound `N#Cc1cnc(N)nc1-c1ccc(F)cc1` [Compound 3h, 2-amino-4-(4-fluorophenyl)pyrimidine-5-carbonitrile] displayed a melting point of 214 to 216 °C. Also, in series [1], the IC50 amounted to 67 ± 3.5 µM. In addition, the IC50 in series [2] was found to be 94.2 ± 5.3 µM. For the same compound, in series [3], the half-maximal inhibitory concentration (IC50) was more than 100 µM. Also, the IC50 in series [4] was 82.5 ± 4.1 µM. Also, the IC50 in series [5] came to 59 ± 3.4 µM.

Regarding `N#Cc1cnc(N)nc1-c1ccccc1` [Compound 3f, 2-amino-4-phenylpyrimidine-5-carbonitrile], the IC50 in series [1] turned out to be 8.18 ± 0.8 µM; in series [2], 30.5 ± 2.1 µM; in series [3], 55.2 ± 3.2 µM; in series [4], 18.2 ± 1.4 µM; in [5], 6.08 ± 0.4 µM.

With `COc1cccc2c1C(=O)c1c(O)c3c(c(O)c1C2=O)C[C@@](O)(C(=O)CO)C[C@@H]3O[C@H]1C[C@H](N)[C@H](O)[C@H](C)O1` [DOX, Doxorubicin, reference compound], the IC50 in [1] is 4.5 ± 0.2 µM.

For the compound `Nc1nccc(-c2ccc(OC(F)(F)F)cc2)n1` [Compound 3e, 4-(4-(trifluoromethoxy)phenyl)pyrimidin-2-amine], the IC50 in [1] turned out to be 39.1 ± 2.3 µM; in series [2], 61.3 ± 3.5 µM; in [3] it was 74.6 ± 4.2 µM; in series [4] it was 47 ± 2.6 µM; in [5], 26.3 ± 1.8 µM.

As to `NS(=O)(=O)c1cccc(Nc2nccc(-c3ccc(Cl)cc3)n2)c1` [Compound 5b, 3-((4-(4-Chlorophenyl)pyrimidin-2-yl)amino)benzenesulfonamide], the IC50 in series [1] was 40.9 ± 2.4 µM; on CDK9/CycT1 [6] (setting [8]) it was 0.0589 µM; in series [2] it was 53.8 ± 2.9 µM; on CDK8, 3.81 µM; in series [3] it was 78.5 ± 4.4 µM; in [4], 36.3 ± 2.3 µM. Besides, the IC50 was 3.01 µM against CDK7/CycT1 and 43.7 ± 2.5 µM in series [5]. Further, at CDK9/CycT1 [7], the LE is listed as 0.3683. The compound also returned an LLE at CDK9/CycT1 [7] of 3.3262.

As to `COc1ccc(-c2ccnc(N)n2)cc1` [Compound 3c, 4-(4-methoxyphenyl)pyrimidin-2-amine], the IC50 in series [1] was 74.4 ± 3.7 µM; in [2], more than 100 µM; in [3], 58.1 ± 3.6 µM; in series [4] it was 86.2 ± 4.3 µM; in series [5] it was 62.1 ± 3.6 µM.

As to `N#Cc1cnc(Nc2cccc(S(N)(=O)=O)c2)nc1-c1ccc(F)cc1` [Compound 5l, 3-((5-Cyano-4-(4-fluorophenyl)pyrimidin-2-yl)amino)benzenesulfonamide], the IC50 in series [1] amounted to 56.2 ± 3.2 µM; at CDK9/CycT1 [6] (setting [9]), 0.967 µM; in [2], 83.7 ± 4.6 µM; on CDK8, 1.65 µM; in series [3] it was 39.3 ± 2.7 µM; in [4], 74.9 ± 3.7 µM. In addition, the results for the IC50 (against CDK7/CycT1; in series [5]) were 1.92 µM and 46 ± 2.6 µM, respectively. The LE on CDK9/CycT1 [7] is 0.3394. The LLE on CDK9/CycT1 [7] was found to be 3.9856.

Consider `Nc1nccc(-c2ccc(Cl)cc2)n1` [Compound 3b, 4-(4-chlorophenyl)pyrimidin-2-amine], for which the IC50 came to 18.9 ± 1.3 µM in [1]; 29.1 ± 2 µM in series [2]; 93.9 ± 5.1 µM in series [3]; 15.2 ± 1.2 µM in [4]; 10.2 ± 0.9 µM in [5].

As to `N#Cc1cnc(Nc2ccccc2)nc1-c1ccccc1` [Compound 5m, 4-Phenyl-2-(phenylamino)pyrimidine-5-carbonitrile], the IC50 in series [1] turned out to be 88.4 ± 4.6 µM; against CDK9/CycT1 [6] (setting [9]) it was 1.96 µM; in series [2], 23.6 ± 1.5 µM; at CDK8, 1.43 µM; in [3] it was 73.3 ± 4.1 µM; in series [4], 9.83 ± 0.7 µM. Further, the results for the IC50 (against CDK7/CycT1; in series [5]) were 0.703 µM and 76.3 ± 4.3 µM, respectively. This compound had an LE at CDK9/CycT1 [7] of 0.4289. The same compound registered an LLE at CDK9/CycT1 [7] of 2.9828.
